Data as given in ChEMBL document CHEMBL4765450, “The components and activities analysis of a novel anticoagulant candidate dHG-5” (Eur J Med Chem, 2020).
Calls of active or inactive are those of the source. The calls are words filed in the database; no cut-off is given here.

Experiments:
[1] = target: Coagulation factor IX/VIII (Homo sapiens, UniProt P00451+P00740); experiment: Inhibition of human citrated plasma iXase (factor 8a-factor 9a complex) preincubated for 2 mins followed by factor 10 addition and measured after 1 min by FXa chromogenic substrate SXa-11 based assay; format: protein-complex assay
Sequence of Coagulation factor IX/VIII (P00451 20-759 limits assumed): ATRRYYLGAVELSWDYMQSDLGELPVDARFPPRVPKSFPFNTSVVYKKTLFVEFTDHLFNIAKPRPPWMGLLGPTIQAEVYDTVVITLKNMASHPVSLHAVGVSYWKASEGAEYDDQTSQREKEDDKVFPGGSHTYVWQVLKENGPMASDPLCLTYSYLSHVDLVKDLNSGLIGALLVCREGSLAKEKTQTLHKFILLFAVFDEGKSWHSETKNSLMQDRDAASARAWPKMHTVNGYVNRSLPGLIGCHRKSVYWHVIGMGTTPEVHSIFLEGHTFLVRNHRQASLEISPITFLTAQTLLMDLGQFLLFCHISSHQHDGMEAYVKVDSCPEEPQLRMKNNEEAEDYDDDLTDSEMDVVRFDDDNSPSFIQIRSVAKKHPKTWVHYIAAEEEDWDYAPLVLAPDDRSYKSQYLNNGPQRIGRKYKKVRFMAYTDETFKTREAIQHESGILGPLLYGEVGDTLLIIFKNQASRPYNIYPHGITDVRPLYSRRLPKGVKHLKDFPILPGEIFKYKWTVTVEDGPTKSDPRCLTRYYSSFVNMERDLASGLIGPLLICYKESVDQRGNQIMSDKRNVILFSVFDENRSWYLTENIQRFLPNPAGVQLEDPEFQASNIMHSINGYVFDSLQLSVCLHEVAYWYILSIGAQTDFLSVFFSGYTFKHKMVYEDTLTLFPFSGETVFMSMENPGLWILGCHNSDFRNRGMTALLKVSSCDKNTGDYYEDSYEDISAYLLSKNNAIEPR
Sequence of Coagulation factor IX/VIII (P00451 1668-2351 limits assumed): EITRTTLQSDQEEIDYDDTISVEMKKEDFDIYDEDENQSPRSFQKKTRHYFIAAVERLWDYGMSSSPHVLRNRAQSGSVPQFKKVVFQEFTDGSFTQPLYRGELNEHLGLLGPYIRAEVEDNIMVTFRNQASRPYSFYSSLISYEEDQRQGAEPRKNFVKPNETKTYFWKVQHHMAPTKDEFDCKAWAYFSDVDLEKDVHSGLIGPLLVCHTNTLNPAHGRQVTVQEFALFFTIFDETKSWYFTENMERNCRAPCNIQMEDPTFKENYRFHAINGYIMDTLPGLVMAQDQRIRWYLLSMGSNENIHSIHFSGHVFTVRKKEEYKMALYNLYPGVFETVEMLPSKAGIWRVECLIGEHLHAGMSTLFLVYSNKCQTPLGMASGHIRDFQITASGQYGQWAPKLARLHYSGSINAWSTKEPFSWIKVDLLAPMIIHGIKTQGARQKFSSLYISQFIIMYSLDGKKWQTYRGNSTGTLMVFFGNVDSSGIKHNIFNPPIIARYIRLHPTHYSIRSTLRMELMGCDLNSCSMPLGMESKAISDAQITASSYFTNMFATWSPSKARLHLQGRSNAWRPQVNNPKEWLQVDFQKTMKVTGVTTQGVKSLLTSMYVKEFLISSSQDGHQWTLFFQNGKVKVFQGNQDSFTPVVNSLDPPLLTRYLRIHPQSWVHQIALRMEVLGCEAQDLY
Sequence of Coagulation factor IX/VIII (P00740 47-191 limits assumed): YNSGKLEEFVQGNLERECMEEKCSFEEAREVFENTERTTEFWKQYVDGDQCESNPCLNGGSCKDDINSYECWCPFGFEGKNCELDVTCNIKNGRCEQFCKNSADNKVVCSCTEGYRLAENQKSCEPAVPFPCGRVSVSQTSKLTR
Sequence of Coagulation factor IX/VIII (P00740 227-461 limits assumed): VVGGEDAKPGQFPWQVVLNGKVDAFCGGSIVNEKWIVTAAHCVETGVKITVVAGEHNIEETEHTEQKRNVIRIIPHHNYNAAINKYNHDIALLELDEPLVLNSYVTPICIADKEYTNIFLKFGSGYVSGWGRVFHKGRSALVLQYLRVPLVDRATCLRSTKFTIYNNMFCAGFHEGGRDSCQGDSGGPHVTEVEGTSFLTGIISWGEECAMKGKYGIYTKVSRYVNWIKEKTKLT

[2] = target: Coagulation factor X (Homo sapiens) (UniProt P00742); experiment: Inhibition of factor 10a (unknown origin) at IC50 preincubated for 1 min followed by chromogenic substrate addition and measured for 2 mins in presence of AT-III; settings: time 3.0 min
Sequence of Coagulation factor X (Homo sapiens) (P00742 41-179 limits assumed): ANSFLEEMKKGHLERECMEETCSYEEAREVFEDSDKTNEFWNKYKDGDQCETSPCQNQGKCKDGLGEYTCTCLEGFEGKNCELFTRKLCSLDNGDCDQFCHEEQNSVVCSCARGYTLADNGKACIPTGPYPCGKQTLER
Sequence of Coagulation factor X (Homo sapiens) (P00742 235-488 limits assumed): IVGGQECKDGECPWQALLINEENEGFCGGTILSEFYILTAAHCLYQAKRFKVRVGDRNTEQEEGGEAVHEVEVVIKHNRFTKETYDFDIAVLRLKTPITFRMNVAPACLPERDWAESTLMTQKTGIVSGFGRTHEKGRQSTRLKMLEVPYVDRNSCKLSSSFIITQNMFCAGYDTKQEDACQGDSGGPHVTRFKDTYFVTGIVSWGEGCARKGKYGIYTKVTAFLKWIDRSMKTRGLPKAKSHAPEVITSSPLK

Plasma [3] = experiment: Anticoagulation activity in human plasma assessed as drug level causing 20 times doubling of APTT preincubated for 2 mins followed by APTT reagent and measured after 3 mins by coagulometric method; format: functional; settings: time 5 min
Coagulation factor IX [4] = target: T1, Coagulation factor IX (Homo sapiens, UniProt P00740); experiment: Inhibition of factor 9a (unknown origin) binding to immobilized biotinylated oHG-11 by biolayer interferometry relative to dHG-5
T1 sequence (P00740 47-191 limits assumed): as the sequence (P00740 47-191 limits assumed) above
T1 sequence (P00740 227-461 limits assumed): as the sequence (P00740 227-461 limits assumed) above

Rattus norvegicus [5] = experiment: Antithrombotic activity in thromboplastin and stasis-induced Sprague-Dawley rat deep venous thrombosis model assessed as reduction in venous thrombosis by measuring activity potency of oligosaccharides multiplied by the percentage of oligosaccharides in dHG-5 at 13.5 mg/kg, sc administered 1 hr prior to thromboplastin addition for 20 secs followed by establishment of stasis for 20 mins relative to dHG-5; format: functional; settings: time 80.33 min, 1.339 h
[6] = target: Coagulation factor XI (Homo sapiens) (UniProt P03951); experiment: Inhibition of factor 11a (unknown origin) at IC50 using S-2366 as substrate preincubated for 1 min followed by chromogenic substrate addition and measured for 2 mins in presence of AT-III; settings: time 3.0 min
Sequence of Coagulation factor XI (Homo sapiens) (P03951 19-387 limits assumed): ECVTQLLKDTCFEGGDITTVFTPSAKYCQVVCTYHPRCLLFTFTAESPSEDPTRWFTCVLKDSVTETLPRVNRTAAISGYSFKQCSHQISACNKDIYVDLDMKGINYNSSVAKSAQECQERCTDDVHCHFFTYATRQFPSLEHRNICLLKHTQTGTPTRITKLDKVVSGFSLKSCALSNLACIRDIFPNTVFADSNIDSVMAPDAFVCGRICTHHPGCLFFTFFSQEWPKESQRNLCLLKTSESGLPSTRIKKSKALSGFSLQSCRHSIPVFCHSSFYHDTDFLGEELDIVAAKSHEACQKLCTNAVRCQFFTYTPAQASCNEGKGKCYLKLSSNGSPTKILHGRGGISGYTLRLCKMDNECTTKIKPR
Sequence of Coagulation factor XI (Homo sapiens) (P03951 388-625 limits assumed): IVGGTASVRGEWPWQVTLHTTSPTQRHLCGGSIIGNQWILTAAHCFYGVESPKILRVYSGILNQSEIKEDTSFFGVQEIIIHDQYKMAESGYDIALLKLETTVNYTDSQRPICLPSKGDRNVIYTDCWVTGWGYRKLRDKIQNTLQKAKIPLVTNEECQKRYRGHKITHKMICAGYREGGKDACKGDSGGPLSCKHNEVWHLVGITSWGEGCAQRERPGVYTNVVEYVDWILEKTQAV

Rattus norvegicus [7] = experiment: Antithrombotic activity in thromboplastin and stasis-induced Sprague-Dawley rat deep venous thrombosis model assessed as reduction in venous thrombosis at 13.5 mg/kg, sc administered 1 hr prior to thromboplastin addition for 20 secs followed by establishment of stasis for 20 mins relative to dHG-5; format: functional; settings: time 80.33 min, 1.339 h
Plasma [8] = experiment: Anticoagulation activity in HCII-deficient human plasma preincubated for 2 mins followed by APTT reagent and measured after 3 mins by coagulometric method; format: functional, cell-free; settings: time 5.0 min
Rattus norvegicus [9] = experiment: Antithrombotic activity in thromboplastin and stasis-induced Sprague-Dawley rat deep venous thrombosis model assessed as reduction in venous thrombosis at 13.5 mg/kg, sc administered 1 hr prior to thromboplastin addition for 20 secs followed by establishment of stasis for 20 mins; format: functional; set-up: scale not given: the % may be the effect or the level left; settings: time 80.33 min, 1.339 h
Coagulation factor IX [10] = target: T1, Coagulation factor IX; experiment: Inhibition of factor 9a (unknown origin) binding to immobilized biotinylated oHG-11 assessed as activity potency of oligosaccharides multiplied by the percentage of oligosaccharides in dHG-5 by biolayer interferometry relative to dHG-5
Plasma [11] = experiment: Anticoagulation activity in AT-III-deficient human plasma preincubated for 2 mins followed by APTT reagent and measured after 3 mins by coagulometric method; format: functional, cell-free; settings: time 5.0 min
[12] = target: T2, Coagulation factor VII (Homo sapiens) (UniProt P08709); experiment: Inhibition of factor 7a (unknown origin) at IC50 using pefachrome factor VIIa as substrate preincubated for 1 min followed by chromogenic substrate addition and measured for 2 mins; settings: time 3.0 min
T2 sequence (whole entry): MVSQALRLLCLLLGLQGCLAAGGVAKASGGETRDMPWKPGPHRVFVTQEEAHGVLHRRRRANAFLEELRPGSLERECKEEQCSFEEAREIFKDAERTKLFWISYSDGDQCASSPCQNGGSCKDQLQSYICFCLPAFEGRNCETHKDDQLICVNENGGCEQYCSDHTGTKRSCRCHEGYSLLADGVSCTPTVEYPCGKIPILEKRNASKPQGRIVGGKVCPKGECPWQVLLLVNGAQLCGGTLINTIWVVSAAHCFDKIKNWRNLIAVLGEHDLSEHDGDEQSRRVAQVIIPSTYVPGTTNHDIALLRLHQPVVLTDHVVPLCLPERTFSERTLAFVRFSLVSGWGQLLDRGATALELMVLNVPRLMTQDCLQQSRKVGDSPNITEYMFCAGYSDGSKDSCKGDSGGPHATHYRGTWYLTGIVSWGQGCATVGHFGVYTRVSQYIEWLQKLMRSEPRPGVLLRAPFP

Plasma [13] = experiment: Anticoagulation activity in human plasma assessed as drug level causing 20 times doubling of APTT by measuring activity potency of oligosaccharides multiplied by the percentage of oligosaccharides in dHG-5 preincubated for 2 mins followed by APTT reagent and measured after 3 mins by coagulometric method relative to dHG-5; format: functional; settings: time 5 min
[14] = target: Prothrombin (Homo sapiens) (UniProt P00734); experiment: Inhibition of factor 2a (unknown origin) at IC90 preincubated for 1 min followed by chromogenic substrate addition and measured for 2 mins in presence of AT-III; settings: time 3.0 min
Coagulation factor IX [15] = target: T1, Coagulation factor IX; experiment: Inhibition of factor 9a (unknown origin) binding to immobilized biotinylated oHG-11 by biolayer interferometry
[16] = target: Coagulation factor X (Homo sapiens) (UniProt P00742); experiment: Inhibition of factor 10a (unknown origin) at IC50 preincubated for 1 min followed by chromogenic substrate addition and measured for 2 mins; settings: time 3.0 min
[17] = target: Coagulation factor XI (Homo sapiens) (UniProt P03951); experiment: Inhibition of factor 11a (unknown origin) at IC50 using S-2366 as substrate preincubated for 1 min followed by chromogenic substrate addition and measured for 2 mins; settings: time 3.0 min
Plasma [18] = experiment: Anticoagulation activity in human plasma assessed as drug level causing 20 times doubling of APTT preincubated for 2 mins followed by APTT reagent and measured after 3 mins by coagulometric method relative to dHG-5; format: functional; settings: time 5 min
[19] = target: T3, Coagulation factor XII (Homo sapiens) (UniProt P00748); experiment: Inhibition of factor 12a (unknown origin) at IC50 using kallikrein chromogenic substrate preincubated for 1 min followed by chromogenic substrate addition and measured for 2 mins; settings: time 3.0 min
T3 sequence (whole entry): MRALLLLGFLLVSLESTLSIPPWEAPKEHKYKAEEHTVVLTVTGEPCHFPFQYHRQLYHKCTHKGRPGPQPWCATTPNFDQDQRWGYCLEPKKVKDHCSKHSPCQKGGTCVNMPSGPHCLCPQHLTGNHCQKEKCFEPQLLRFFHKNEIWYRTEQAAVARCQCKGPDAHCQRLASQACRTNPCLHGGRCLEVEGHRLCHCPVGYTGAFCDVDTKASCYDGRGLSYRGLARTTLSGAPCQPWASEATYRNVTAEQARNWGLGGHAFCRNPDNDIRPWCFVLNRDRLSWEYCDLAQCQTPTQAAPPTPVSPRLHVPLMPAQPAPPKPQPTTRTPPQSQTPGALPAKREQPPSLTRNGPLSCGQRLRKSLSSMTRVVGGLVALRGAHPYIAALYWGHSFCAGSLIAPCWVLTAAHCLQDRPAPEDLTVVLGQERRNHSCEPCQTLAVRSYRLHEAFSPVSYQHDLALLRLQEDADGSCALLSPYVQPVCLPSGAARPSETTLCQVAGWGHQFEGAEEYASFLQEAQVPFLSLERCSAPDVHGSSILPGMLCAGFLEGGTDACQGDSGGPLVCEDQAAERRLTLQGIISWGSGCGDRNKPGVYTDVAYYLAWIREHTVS

[20] = target: T4, Coagulation factor IX/VIII (Homo sapiens) (UniProt P00740+P00451); experiment: Inhibition of human citrated plasma iXase (factor 8a-factor 9a complex) preincubated for 2 mins followed by factor 10 addition and measured after 1 min by FXa chromogenic substrate SXa-11 based assay relative to dHG-5; format: protein-complex assay; settings: time 3.0 min
[21] = target: Coagulation factor XI (Homo sapiens) (UniProt P03951); experiment: Inhibition of factor 11a (unknown origin) at IC90 using S-2366 as substrate preincubated for 1 min followed by chromogenic substrate addition and measured for 2 mins in presence of AT-III; settings: time 3.0 min
[22] = target: Prothrombin (Homo sapiens) (UniProt P00734); experiment: Inhibition of factor 2a (unknown origin) at IC50 preincubated for 1 min followed by chromogenic substrate addition and measured for 2 mins in presence of AT-III; settings: time 3.0 min
[23] = target: T4, Coagulation factor IX/VIII (Homo sapiens); experiment: Inhibition of human citrated plasma iXase (factor 8a-factor 9a complex) assessed as activity potency of oligosaccharides multiplied by the percentage of oligosaccharides in dHG-5 preincubated for 2 mins followed by factor 10 addition and measured after 1 min by FXa chromogenic substrate SXa-11 based assay relative to dHG-5; format: protein-complex assay; settings: time 3.0 min
[24] = target: T3, Coagulation factor XII (Homo sapiens); experiment: Inhibition of factor 12a (unknown origin) at IC50 using kallikrein chromogenic substrate preincubated for 1 min followed by chromogenic substrate addition and measured for 2 mins in presence of AT-III; settings: time 3.0 min
[25] = target: Coagulation factor X (Homo sapiens) (UniProt P00742); experiment: Inhibition of factor 10a (unknown origin) at IC90 preincubated for 1 min followed by chromogenic substrate addition and measured for 2 mins in presence of AT-III relative to control; settings: time 3.0 min
[26] = target: T2, Coagulation factor VII (Homo sapiens); experiment: Inhibition of factor 7a (unknown origin) at IC50 using pefachrome factor VIIa as substrate preincubated for 1 min followed by chromogenic substrate addition and measured for 2 mins in presence of AT-III; settings: time 3.0 min
[27] = target: Prothrombin (Homo sapiens) (UniProt P00734); experiment: Inhibition of factor 2a (unknown origin) at IC50 preincubated for 1 min followed by chromogenic substrate addition and measured for 2 mins; settings: time 3.0 min
Plasma [28] = experiment: Induction of platelet aggregation in rat wash platelet at plasma peak concentration of 10 times anti-thrombosis ED50 measured after 10 mins by light transmission aggregometry
Rattus norvegicus [29] = experiment: Antithrombotic activity in thromboplastin and stasis-induced Sprague-Dawley rat deep venous thrombosis model assessed as reduction in venous thrombosis by measuring activity potency of oligosaccharides multiplied by the percentage of oligosaccharides in dHG-5 at 4.94 mg/kg, sc administered 1 hr prior to thromboplastin addition for 20 secs followed by establishment of stasis for 20 mins relative to dHG-5; format: functional; settings: time 80.33 min, 1.339 h
Rattus norvegicus [30] = experiment: Antithrombotic activity in thromboplastin and stasis-induced Sprague-Dawley rat deep venous thrombosis model assessed as reduction in venous thrombosis at 4.94 mg/kg, sc administered 1 hr prior to thromboplastin addition for 20 secs followed by establishment of stasis for 20 mins relative to dHG-5; format: functional; settings: time 80.33 min, 1.339 h
Plasma [31] = experiment: Induction of platelet aggregation in human platelet rich plasma at plasma peak concentration of 10 times anti-thrombosis ED50 measured after 10 mins by light transmission aggregometry

Structure (SMILES)	inhibition [2]	Ratio (Coagulation factor IX [4]) [U]	inhibition [6]	Activity (Plasma [8])	Ratio (Coagulation factor IX [10]) [U]	Activity (Plasma [11])	inhibition (active/not active) [12]	Ratio (Plasma [13]) [U]	inhibition [14]	inhibition [16]	inhibition [17]	Ratio (Plasma [18]) [U]	inhibition [19]	Ratio [20] [U]	inhibition [21]	inhibition [22]	Ratio [23] [U]	inhibition [24]	inhibition [25] [%]	inhibition [26]	other results
CC(=O)N[C@H]1[C@H](O[C@@H]([C@H](O[C@@H]2O[C@@H](C)[C@@H](OS(=O)(=O)[O-])[C@@H](OS(=O)(=O)O)[C@@H]2O)[C@@H](O)CO)[C@H](O)C(=O)[O-])O[C@H](COS(=O)(=O)[O-])[C@H](OS(=O)(=O)[O-])[C@@H]1O[C@@H]1OC(C(=O)[O-])=C[C@H](O[C@@H]2O[C@@H](C)[C@@H](OS(=O)(=O)[O-])[C@@H](OS(=O)(=O)O)[C@@H]2O)[C@H]1O.[Na+].[Na+].[Na+].[Na+].[Na+].[Na+]	inactive	3.32	inactive	Active	0.16	Active	Active	0.04	Active	inactive	inactive	0.9	inactive	0.36	Active	inactive	0.02	inactive	14.2	inactive	IC50 [1]: > 3 µM; EC (Plasma [3]): 199 µM; Ratio (Rattus norvegicus [5]): 0.19 U; Ratio (Rattus norvegicus [7]): 3.96 U; Activity (Rattus norvegicus [9]): 30.8%; IC50 (Coagulation factor IX [15]): 12.9 µM; inhibition [27]: inactive
CC(=O)N[C@H]1[C@H](O[C@@H]([C@H](O[C@@H]2O[C@@H](C)[C@@H](OS(=O)(=O)[O-])[C@@H](OS(=O)(=O)O)[C@@H]2O)[C@@H](O)CO)[C@H](O)C(=O)[O-])O[C@@H](COS(=O)(=O)[O-])[C@H](OS(=O)(=O)[O-])[C@@H]1O[C@@H]1O[C@H](C(=O)[O-])[C@@H](O[C@@H]2O[C@H](COS(=O)(=O)[O-])[C@H](OS(=O)(=O)[O-])[C@H](O[C@@H]3OC(C(=O)[O-])=C[C@H](O[C@@H]4O[C@@H](C)[C@@H](OS(=O)(=O)[O-])[C@@H](S(=O)(=O)O)[C@@H]4O)[C@H]3O)[C@H]2NC(C)=O)[C@H](O[C@@H]2O[C@@H](C)[C@@H](OS(=O)(=O)[O-])[C@@H](OS(=O)(=O)O)[C@@H]2O)[C@@H]1O.[Na+].[Na+].[Na+].[Na+].[Na+].[Na+].[Na+].[Na+].[Na+].[Na+]	inactive	13	inactive	Active	2.27	Active	inactive	1.91	Active	inactive	inactive	10.96	inactive	8.98	Active	inactive	1.56	inactive	14.2	inactive	Activity (Plasma [28]): Not Active; Ratio (Rattus norvegicus [29]): 4.23 U; Ratio (Rattus norvegicus [30]): 24.31 U; Activity (Plasma [31]): Not Active; inhibition [27]: inactive
